Where two headings read alike, the source gives them in different places.

Consider eleven compounds from patent publication US20150065466A1, “NOVEL DXR INHIBITORS FOR ANTIMICROBIAL THERAPY” (priority 2012, published 2015).

Data set [1] deals with T1, PfDXR (Plasmodium falciparum, UniProt Q8IKG4).
T1 sequence (Q8IKG4 75-488): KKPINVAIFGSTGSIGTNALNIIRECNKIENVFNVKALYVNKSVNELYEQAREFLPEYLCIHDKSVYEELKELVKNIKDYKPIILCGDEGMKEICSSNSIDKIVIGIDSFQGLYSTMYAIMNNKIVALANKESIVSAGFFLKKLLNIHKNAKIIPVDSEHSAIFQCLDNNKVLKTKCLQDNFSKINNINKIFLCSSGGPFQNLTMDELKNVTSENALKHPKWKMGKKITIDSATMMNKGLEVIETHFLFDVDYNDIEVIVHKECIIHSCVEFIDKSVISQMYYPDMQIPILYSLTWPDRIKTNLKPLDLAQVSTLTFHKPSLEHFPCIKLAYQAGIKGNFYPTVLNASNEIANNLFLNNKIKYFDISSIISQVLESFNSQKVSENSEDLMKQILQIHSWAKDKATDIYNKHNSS
The following applies: Table 2, data from literature (footnote a); cited from earlier work.

In the next data set the target is TgDXR (Toxoplasma gondii, UniProt S8ESX0). Format: biochemical, T. gondii.
Chain of TgDXR (S8ESX0 entry or part of it): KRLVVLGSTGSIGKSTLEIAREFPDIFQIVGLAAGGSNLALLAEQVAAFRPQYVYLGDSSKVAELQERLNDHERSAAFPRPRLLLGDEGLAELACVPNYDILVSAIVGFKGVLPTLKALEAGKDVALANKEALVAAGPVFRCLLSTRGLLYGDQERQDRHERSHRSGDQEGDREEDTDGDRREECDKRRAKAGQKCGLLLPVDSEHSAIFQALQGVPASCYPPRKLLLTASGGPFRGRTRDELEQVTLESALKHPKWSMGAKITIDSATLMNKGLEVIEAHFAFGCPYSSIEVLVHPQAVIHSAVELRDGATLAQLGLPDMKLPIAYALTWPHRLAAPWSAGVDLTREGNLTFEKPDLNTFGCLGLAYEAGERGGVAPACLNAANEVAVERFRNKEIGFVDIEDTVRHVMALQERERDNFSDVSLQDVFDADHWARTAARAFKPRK
The target of data set [2] is T2, EcDXR (Escherichia coli, UniProt P45568). The following applies: cited from earlier work.
T2 sequence (P45568 whole entry): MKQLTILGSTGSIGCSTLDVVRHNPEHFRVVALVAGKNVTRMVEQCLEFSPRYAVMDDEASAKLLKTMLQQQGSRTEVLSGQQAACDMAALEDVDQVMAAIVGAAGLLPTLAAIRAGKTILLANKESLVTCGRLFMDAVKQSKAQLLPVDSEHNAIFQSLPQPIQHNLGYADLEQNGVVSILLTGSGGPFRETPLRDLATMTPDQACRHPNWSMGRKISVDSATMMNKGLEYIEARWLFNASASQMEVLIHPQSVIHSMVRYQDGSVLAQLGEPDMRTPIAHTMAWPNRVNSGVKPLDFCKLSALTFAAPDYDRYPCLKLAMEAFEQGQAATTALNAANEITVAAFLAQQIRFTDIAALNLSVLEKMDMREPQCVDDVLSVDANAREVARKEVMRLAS
For data set [3] the following is noted: cited from earlier work; for half life in plasma: human plasma, patients; for oral availability: human, in vivo.
Another data set relates to P. falciparum Dd2 strain. Nature of the data set: P. falciparum proliferation, DAPI fluorescence assay, Dd2 strain. The following applies: read-out: IC50 against P. falciparum proliferation, Dd2 strain. Format: cell-based.
A further data set deals with P. aeruginosa isolates. The following applies: Neu and Kamimura, 1981; cited from earlier work.
Another data set relates to P. falciparum 3D7 strain. Briefly: P. falciparum proliferation, DAPI fluorescence assay, 3D7 strain. Format: cell-based. The following applies: read-out: IC50 against P. falciparum proliferation, 3D7 strain.
For a further data set, the system named is T. gondii. The following applies: study from the Moreno group; cited from earlier work.
The subject of data set [4] is T. gondii engineered to express the bacterial GlpT. The following applies: Nair et al., 2011; cited from earlier work.
Data set [5] concerns the target T1, PfDXR. Briefly: recombinant PfDXR enzyme inhibition. The class given is biochemical, P. falciparum.
Another data set relates to A549. Nature of the data set: cytotoxicity, MTS assay, A549. The class given is cell-based, human. The following applies: at 300 μM, 48 h. On the technique in general: Tetrazolium dyes change colour on reduction, which living cells bring about.
The target in data set [6] is T2, EcDXR. Nature of the data set: recombinant EcDXR enzyme inhibition. The class given is biochemical, E. coli.
Another data set deals with WI-38 (fibroblast). Nature of the data set: cytotoxicity, MTS assay, WI-38. The class given is cell-based, human. The following applies: at 300 μM, 48 h. Here is the method:
PfDXR inhibitors SYC-466, -467, -408, -409 were tested against three non-cancerous human cell lines, i.e., WI-38 (fibroblast), HEK293 (kidney) and Beas2B (lung epithelial), to evaluate the potential toxicity of these compounds, using an assay routinely perform (41). 1×10^5 cells are inoculated into each well of a 96-well plate and cultured in Dulbecco's Modified Eagle's Medium (DMEM) supplemented with 10% fetal bovine serum at 37° C. in a 5% CO2 atmosphere with 100% humidity overnight for cell attachment. After addition of compounds (from 0.1-300 μM), plates are incubated for 48 h after which cell viability are assessed by the [3-(4,5-dimethylthiazol-2-yl)-5-(3-carboxymethoxyphenyl)-2-(4-sulfophenyl)-2H-tetrazolium, inner salt (MTS) assay, using a commercially available kit (Promega). IC50s of each compound can be calculated from dose response curves.

For another data set, the system named is Hela. Nature of the data set: cytotoxicity, MTS assay, Hela. The class given is cell-based, human. The following applies: at 300 μM, 48 h.
[7] abbreviates: 100 nM TgDXR, 4 mM MgCl2, 100 μM DXP, pH 7.6, read-out: Ki TgDXR.
Setting [8] is: Plasmodium falciparum, DD2, Erythrocyte, 72 h.
[9] abbreviates: Plasmodium falciparum, 3D7, Erythrocyte, 72 h.
[10] abbreviates: Dd2 (multidrug resistant), erythrocyte stage, 3 days.
Where [11] appears, read: read-out: Ki against recombinant EcDXR.
[12] abbreviates: 3D7 (chloroquine sensitive), erythrocyte stage, 3 days.
Where [13] appears, read: Table 1, read-out: Enzyme Ki PfDXR.

As usually defined, the Ki is the equilibrium dissociation constant of an inhibitor or competing ligand from its target. Consider `O=P(O)(O)Cc1ccccn1` [Compound 3], for which the figures for the Ki on PfDXR [1], at TgDXR (setting [7]) and at EcDXR [2] were 3300 nM, 4100 nM and 2300 nM, respectively. In addition, on TgDXR, the “Ki against TgDXR, in words” value is recorded as “low μM range”.
Turning to `O=CN(O)CCC(c1ccc(Cl)c(Cl)c1)P(=O)(O)O` (stereo not drawn) [Compound 10], the inhibitory constant (Ki) was 15 nM on PfDXR [1], 77 nM on TgDXR (setting [7]), 77 nM at TgDXR (read-out: Ki against TgDXR) and 58 nM at EcDXR [2].
As for `CC(=O)N(O)CCC(c1ccc(Cl)c(Cl)c1)P(=O)(O)O` (stereo not drawn) [Compound 11], the figures for the Ki on PfDXR [1], on TgDXR (setting [7]) and on EcDXR [2] were 25 nM, 220 nM and 36 nM, respectively.
`CC(=O)N(O)CCCP(=O)(O)O` [FR900098]: the Ki on PfDXR [1] was 11 nM; at TgDXR (setting [7]), 48 nM; on TgDXR (read-out: Ki against TgDXR), 48 nM; at EcDXR [2] (Table 2, data from literature (footnote a)), 19 nM.
Take `O=CN(O)CCCP(=O)(O)O` [Fosmidomycin]: the results for the “half life in plasma” value in data set [3] and in data set [3] (listed as 1) were 30 to 90 min and approximately 60 min, respectively. Moreover, the values for the oral availability entry in data set [3] and in data set [3] (listed as 1) were “low” and “poor”, respectively. The IC50 in the data set with P. falciparum Dd2 strain (setting [8]) was determined as 440 nM; with P. falciparum 3D7 strain (setting [9]) it was 1170 nM. Besides, the “MIC50 (inhibits 50% of P. aeruginosa isolates)” value in the data set with P. aeruginosa isolates is 6.25 µg/mL. The Ki on TgDXR (read-out: Ki against TgDXR) came to 90 nM. In the data set with T. gondii, the “activity on T. gondii parasite” value is “no activity”. In data set [4], the “killing of T. gondii expressing GlpT” value is on record as “can effectively kill”.
As to `CC(=O)N(O)CCC(c1cccnc1)P(=O)(O)O` (stereo not drawn) [SYC-408], the values for the IC50 with P. falciparum Dd2 strain (setting [10]) and in the data set with P. falciparum 3D7 strain (setting [12]) were 310 nM and 440 nM, respectively. In addition, the Ki was 1.9 nM at PfDXR [5] (listed as 5a, read-out: Ki against PfDXR); 970 nM at TgDXR (setting [7]); 42 nM on EcDXR [6] (setting [11]); 42 nM at EcDXR [2]. At PfDXR [5] (ratio of Ki values), the “fold more active than fosmidomycin against PfDXR” value is recorded as approximately 10 fold. Also, in the data set with A549, the “cytotoxicity against growth of A549 cells” value (from here on “cytotoxicity … of A549 cells”) is “essentially no cytotoxicity”. The “cytotoxicity against growth of WI-38 cells” value (“cytotoxicity … of WI-38 cells” for short) in the data set on WI-38 (fibroblast) is “essentially no cytotoxicity”. Moreover, in the data set with Hela, the “cytotoxicity against growth of Hela cells” value (from here on “cytotoxicity … of Hela cells”) is recorded as “essentially no cytotoxicity”.
Take `CC(=O)N(O)CCC(c1ccncc1)P(=O)(O)O` (stereo not drawn) [SYC-409]: the figures for the IC50 with P. falciparum Dd2 strain (setting [10]) and in the data set on P. falciparum 3D7 strain (setting [12]) were 460 nM and 630 nM, respectively. Besides, the Ki on PfDXR [5] (setting [13]) is 13 nM; on TgDXR (setting [7]) it was 530 nM; at EcDXR [6] (setting [11]), 82 nM; at EcDXR [2] it was 82 nM. Also, in the data set on A549, the “cytotoxicity … of A549 cells” value is on record as “essentially no cytotoxicity”. Besides, in the data set with WI-38 (fibroblast), the “cytotoxicity … of WI-38 cells” value is listed as “essentially no cytotoxicity”. The “cytotoxicity … of Hela cells” value in the data set with Hela is “essentially no cytotoxicity”.
Turning to `O=CN(O)CCC(c1cccnc1)P(=O)(O)O` (stereo not drawn) [SYC-466], the Ki on PfDXR [1] is 13 nM; at PfDXR [5], 13 nM; at TgDXR (read-out: Ki against TgDXR) it was 55 nM; on EcDXR [6] (Table 1, read-out: Enzyme Ki EcDXR) it was 87 nM. Also, the IC50 in the data set with P. falciparum Dd2 strain (setting [8]) was determined as 180 nM; in the data set with P. falciparum 3D7 strain (setting [9]) it was 340 nM. In addition, the “cytotoxicity … of A549 cells” value in the data set with A549 is on record as “essentially no cytotoxicity”. Further, the “cytotoxicity … of WI-38 cells” value with WI-38 (fibroblast) is recorded as “essentially no cytotoxicity”. In addition, the “cytotoxicity … of Hela cells” value with Hela is given as “essentially no cytotoxicity”.
Take `O=CN(O)CCC(c1ccncc1)P(=O)(O)O` (stereo not drawn) [SYC-467]: the IC50 with P. falciparum Dd2 strain (setting [10]) stood at 170 nM; in the data set with P. falciparum 3D7 strain (setting [12]) it was 180 nM. Further, the Ki at PfDXR [5] (setting [13]) is 8.9 nM; on TgDXR (setting [7]) it was 79 nM; on TgDXR (read-out: Ki against TgDXR), 79 nM; at EcDXR [6] (setting [11]), 35 nM; on EcDXR [2] it was 35 nM. Moreover, in the data set on A549, the “cytotoxicity … of A549 cells” value is “essentially no cytotoxicity”. The “cytotoxicity … of WI-38 cells” value with WI-38 (fibroblast) is listed as “essentially no cytotoxicity”. For the same compound, the “cytotoxicity … of Hela cells” value in the data set with Hela was “essentially no cytotoxicity”.
For the compound `CCN(CC)CCCC(C)Nc1ccnc2cc(Cl)ccc12` (stereo not drawn) [chloroquinone, reference compound], the IC50 in the data set with P. falciparum Dd2 strain (Plasmodium falciparum, 72 h, Dd2 (multidrug resistant), erythrocyte stage, 3 days) amounted to 111 nM; in the data set with P. falciparum 3D7 strain (Plasmodium falciparum, 72 h, 3D7 (chloroquine sensitive), erythrocyte stage, 3 days), 28 nM.
With gentamicin, the “MIC50 (inhibits 50% of P. aeruginosa isolates)” value with P. aeruginosa isolates was 12.5 µg/mL.
